From PMC11468294, “Peptide Amphiphiles as Biodegradable Adjuvants for Efficient Retroviral Gene Delivery” (Advanced Healthcare Materials, 2023)
Entries after “also recorded” stand apart in the source; their conditions may differ. Where a SMILES comes first, the peptide text is derived from it. The star is where a group is joined. Palmitoyl = CCCCCCCCCCCCCCCC(=O)*

Assays:
[1] = system: HIV-1 infection of TZM-bl cells; test: HIV-1 infection assay (β-galactosidase luminescence reporter); format: cell-based; details: infectivity enhancing if n-fold at 1.3 µM larger than 2
Experimental: HIV‐1 Infection Assay: The effect of peptide fibrils on HIV‐1 infection was studied via a luminescence assay for β‐galactosidase, which was reported by TZM‐bl cells upon infection. 10000 TZM‐bl cells were seeded in 180 µl supplemented DMEM one day prior infection. The cells were inoculated with 20 µl PNF solution 1:1 (v/v) mixed with virus (1:500 dilution) after an incubation time of 10 min. The HIV‐1 infection assay was conducted in three technical replicates and repeated in three independent experiments unless stated otherwise. The assay was conducted as described before.^[ [20] ^]

[2] = Zeta-potential measurement; format: physicochemical; details: fibrils 1 mg mL-1 in PBS, 60 µL diluted in 600 µL 1 mM KCl; triplicates
Experimental: Zeta‐potential: 60 µL of the peptides (1 mg mL^−1) were diluted in 600 µL, 1 mM KCl solution and placed in a disposable folded capillary cuvette. All zeta‐potential measurements (Zetasizer, Malvern Instruments) were conducted in triplicates for each sample.

ThT fluorescence = format: physicochemical; set-up: key: + = ThT active; − = no ThT fluorescence observed; details: 1 mg mL-1 in PBS; ThT-active if fluorescence at least twice the control (PBS with 10% DMSO)
Experimental: ThT‐fluorescence: 20 µL 50 µM of ThT solution in PBS was pipetted in a black 384 well‐plate and 4 µL of the nanofibril solution 1 mg mL^−1 were added. For reference PBS with 10% DMSO (4 µL) instead of fibril solution was added. Subsequently, fluorescence emission was recorded λem = 488 nm upon excitation at λex = 440 nm with 10 nm bandwidth and multiple reads per well (3 × 3) using a Spark 20 M microplate reader (Tecan Group, Ltd). Data processing was performed with Origin software. A peptide fibril was considered as ThT‐active if the fluorescence intensity was at least twice as strong compared to the control (PBS containing 10% DMSO).

[3] = ATR-FT-IR β-sheet content; format: physicochemical; details: ATR-IR of lyophilized fibril solutions (1 mg mL-1, PBS); peak integration at 1630 cm-1 in 2nd derivative of amide I region
Experimental: ATR‐FT‐IR: ATR‐IR spectra acquisition and the calculation of β−sheet content were conducted according to a previous report.^[ [20] ^] Briefly, FT‐IR spectra of solid samples were recorded after lyophilization of fibril solutions using a Bruker Tensor II spectrometer equipped with a diamond crystal as ATR element with a spectral resolution of 2 cm–1, each spectrum was an average of 64 scans. The data was processed with Origin software. β−sheet amount was determined by calculating the integral of the peak at 1630 cm^−1 (β‐sheet) relative to the integral between 1650–1700 cm^−1 (native structure) from the 2nd derivative of the FT‐IR spectra.

HeLa cells = test: Cell-PA interaction by confocal laser scanning microscopy; format: cell-based; details: peptide 20 µg mL-1 added for 30 min, washed, Proteostat stain
Experimental: Confocal laser scanning microscopy and degradation study with PA1‐3 and HeLa cells: HeLa cells were seeded one day prior to conducting the assay (40000/well) in an 8‐well IBIDI slide. 4 µL of the preformed peptide fibrils (1 mg mL^−1) were diluted with 4 µL Proteostat (Enzo Life Science, 1 µL stock in 999 µL PBS) and incubated for 10 min and further diluted with medium to receive a final peptide concentration of 20 µg mL^−1. The nucleus of the HeLa cells was stained with Hoechst 33 342 (NucBlue, Thermo Fisher Scientific). The peptide solution was transferred to the HeLa cells and incubated for 30 min at 37°C before washing three times with PBS. The interaction of fibril clusters with cells was monitored after 30 min incubation time on a Stellaris 8 confocal laser scanning microscope (Leica) equipped with a 20x air objective and laser excitation wavelengths of 405 nm (Hoechst) and 561 nm (Proteostat). For the evaluation of aggregate degradation, the samples were further incubated at 37°C for 3 d and analyzed without any additional washing step. The evaluation of aggregate size and number was conducted by analyzing Proteostat stained aggregates via the 3D objects counter function of ImageJ 1.53f51 for 3 individual measurements (area 581.25 µm × 581.25 µm). […] The number of aggregates larger than 10 µm^2 were counted via the 3D objects counter function of ImageJ 1.53f51. The mean number and standard deviations were determined by averaging at least three technical triplicates.
Figure S6 Laser scanning microscopy micrographs of A cells only (control), and Proteostat-stained (red) peptides B EF-
C ([…]), C PA1, D PA2, E PA3, F P1, G P2, H P3 added to HeLa cells (nucleus in blue). The peptides (20 µg mL-
1) were added to cells for 30 min, washed and analyzed. […]

[4] = TEM morphology of peptide assemblies; format: physicochemical; details: diluted from DMSO stock (10 mg mL-1) to 1 mg mL-1 in PBS, incubated 1 d at rt
Experimental: (§1) Transmission electron microscopy (TEM) measurements, Thioflavin (ThT), zeta‐potential measurements for fibril characterization, ATR‐IR spectra acquisition and the calculation of β−sheet were prepared and conducted analogous to a previous report.^[ [20], [86] ^] […] Fibrils were defined as distinct, if no visible structures could be identified in fluorescence and brightfield microscopy. […] The derived count rate of the zeta‐potential measurement was used as information on the light scattering intensity and turbidity of the sample as a further indicator for microscopic aggregation.^[ [90] ^]
TEM: 5 µL of fibrils (1 mg mL^−1) were placed on 300 mesh, Formvar layered copper grids. After 10 min incubation time, the grids were staining with 4% uranyl acetate solution for 2.5 min. After
three washing steps with dd H2O excess solvent was removed by filter paper. Measurements
were performed on a Jeol 1400 electron microscope with 120 kV acceleration voltage.

[5] = Microscopic aggregation (fluorescence / confocal microscopy, derived count rate); format: physicochemical; details: fibrils preformed at 1 mg mL-1 in PBS; ThT or Proteostat stain, widefield or confocal microscopy; derived count rate > 1000 kcps as criterion
Experimental: as §1
Fluorescence microscopy: 1 µL Fibrils (1 mg mL^−1) were stained with 9 µL, 50 µM ThT. 10 µL of the stained fibrils (0.1 mg mL^−1) were placed on a microscopy glass. Fluorescence microscopy measurements were performed on a Leica DMi8 microscope with 10x air objective and equipped with a Leica MC170 HD camera with a filter setting λem = 527/30 nm upon excitation at λex = 480/40 nm) and processed with the Leica LASX software.
7 Effects of PA modifications on properties and activity
To investigate the effects of modification in the PA sequence, we created various peptide amphiphiles derived from PA1 by varying the (I) hydrophobic moiety, (II) the linkage chemistry and (III) the peptide sequence (Figure S12, SI chapter 7.1 – 7.3). The color code for sequence representation is yellow for the hydrophobic moiety, blue for cationic amino acids, red for non-polar amino acids, purple for polar uncharged amino acids, and green for anionic amino acids. To be concise, only the summarized information will be discussed, all original data for the peptides are summarized in the (Figure S26 - […]
Figure S12 Summarized overview of peptide amphiphile library in which systematic variations the original sequence […]
chemistry and (III) the peptide sequence on infectivity enhancement and degradability (see SI chapter 7.1 – 7.3).
In the following section a compound is considered infectivity enhancing if n-fold infectivity at 1.3 µM is larger than 2. A compound is considered to form µm-sized aggregates if visible particles were observed in widefield microscopy (brightfield or ThT-staining filter, objective 10x) or confocal […]
than 1000 kcps in Zeta-Potential measurements.
For the degradability only the PAs which could be stained with Proteostat (Figure S26) and were visible in microscopy (Figure S15, Figure S18, Figure S21, and Figure S22) were studied in detail. To determine […]
whether a PA is degraded or not, Proteostat stained PAs which are added to Hela cells (2 µg peptide added to 20.000 cells) and studied via confocal laser scanning microscopy. […]
In the following, we will distinguish between three aggregation types for fibrillar structures: Fibrils which were not aggregating (below resolution limit of the microscope, approx. 650 nm), moderately aggregating (< 50 µm2) and aggregating to large particles (> 50 µm 2).
7.1 Effects of hydrophobic moiety exchange on properties and activity
To investigate the effects of varying hydrophobic moieties on assembly, aggregation and activity , we

| Structure (SMILES) | infectivity enhancement of HIV-1 (in words) [1] | Zeta-Potential [2] [mV] | ThT fluorescence (ThT fluorescence) | β-sheet content [3] [%] | association with cellular membranes (HeLa cells) | morphology of peptide assemblies / fibril formation (TEM) [4] | formation of µm-sized aggregates (in words) [5] |
| --- | --- | --- | --- | --- | --- | --- | --- |
| CCCCCCCCCCCCCCCC(=O)N[C@H](C(=O)N[C@H](C(=O)N[C@H](C(=O)N[C@@H](C)C(=O)N[C@@H](C)C(=O)N[C@@H](C)C(=O)N[C@@H](CCC(=O)O)C(=O)N[C@@H](CCC(=O)O)C(=O)N[C@@H](CCC(=O)O)C(N)=O)C(C)C)C(C)C)C(C)C [PA3] (Palmitoyl-VVVAAAEEE-NH2) | Inactive | −29.8 ± 2.7 | + | 61 | does not associate with cells | distinct fibrils | did not bundle or adopt µm‐sized aggregates in PBS |
| CCCCCCCCCCCCCCCC(=O)N[C@@H](C)C(=O)NCC(=O)NCC(=O)N[C@@H](CCCNC(=N)N)C(=O)N[C@H](C(=O)N[C@@H](CCCCN)C(N)=O)C(C)C [C16-AGGRVK-NH2] (Palmitoyl-AGGRVK-NH2) | – | – | – | – | did not associate with cells | – | not forming µm-sized aggregates and forming too few/less aggregates, respectively; also recorded: no aggregation |
